Patent US8815918B2, “Imidazo [2, 1-B] [1, 3, 4] thiadiazole derivatives” (Centro Nacional de Investigaciones Oncologicas (CNIO), priority 2009, dated 2014)
Where two headings read alike, the source gives them in different places.

Target: PI3K (p110α/p85α) (Homo sapiens (Human), UniProt P42336)
Assay: PI3K Activity Assay (ADP Hunter Plus)
Type: biochemical
Experimental: The kinase activity was measured by using the commercial ADP Hunter™ Plus assay available from DiscoveRx (#33-016), which is a homogeneous assay to measure the accumulation of ADP, a universal product of kinase activity. The enzyme, PI3K (p110α/p85α was purchased from Carna Biosciences (#07CBS-0402A). The assay was done following the manufacturer recommendations with slight modifications: Mainly the kinase buffer was replace by 50 mM HEPES, pH 7.5, 3 mM MgCl2, 100 mM NaCl, 1 mM EGTA, 0.04% CHAPS, 2 mM TCEP and 0.01 mg/ml BGG. The PI3K was assayed in a titration experiment to determine the optimal protein concentration for the inhibition assay. To calculate the IC50 of the ETP-compounds, serial 1:5 dilutions of the compounds were added to the enzyme at a fixed concentration (2.5 μg/mL. The enzyme was preincubated with the inhibitor and 30 μM PIP2 substrate (P9763, Sigma) for 5 min and then ATP was added to a final 50 μM concentration. Reaction was carried out for 1 hour at 25° C. Reagent A and B were sequentially added to the wells and plates were incubated for 30 min at 37° C. Fluorescence counts were read in a Victor instrument (Perkin Elmer) with the recommended settings (544 and 580 nm as excitation and emission wavelengths, respectively). Values were normalized against the control activity included for each enzyme (i.e., 100% PI3 kinase activity, without compound). These values were plot against the inhibitor concentration and were fit to a sigmoid dose-response curve by using the Graphad software.

[1] = read-out: Biological activity in PI3Kα, semi-quantitative

PI3K (p110α/p85α), sequence (P42336 whole entry): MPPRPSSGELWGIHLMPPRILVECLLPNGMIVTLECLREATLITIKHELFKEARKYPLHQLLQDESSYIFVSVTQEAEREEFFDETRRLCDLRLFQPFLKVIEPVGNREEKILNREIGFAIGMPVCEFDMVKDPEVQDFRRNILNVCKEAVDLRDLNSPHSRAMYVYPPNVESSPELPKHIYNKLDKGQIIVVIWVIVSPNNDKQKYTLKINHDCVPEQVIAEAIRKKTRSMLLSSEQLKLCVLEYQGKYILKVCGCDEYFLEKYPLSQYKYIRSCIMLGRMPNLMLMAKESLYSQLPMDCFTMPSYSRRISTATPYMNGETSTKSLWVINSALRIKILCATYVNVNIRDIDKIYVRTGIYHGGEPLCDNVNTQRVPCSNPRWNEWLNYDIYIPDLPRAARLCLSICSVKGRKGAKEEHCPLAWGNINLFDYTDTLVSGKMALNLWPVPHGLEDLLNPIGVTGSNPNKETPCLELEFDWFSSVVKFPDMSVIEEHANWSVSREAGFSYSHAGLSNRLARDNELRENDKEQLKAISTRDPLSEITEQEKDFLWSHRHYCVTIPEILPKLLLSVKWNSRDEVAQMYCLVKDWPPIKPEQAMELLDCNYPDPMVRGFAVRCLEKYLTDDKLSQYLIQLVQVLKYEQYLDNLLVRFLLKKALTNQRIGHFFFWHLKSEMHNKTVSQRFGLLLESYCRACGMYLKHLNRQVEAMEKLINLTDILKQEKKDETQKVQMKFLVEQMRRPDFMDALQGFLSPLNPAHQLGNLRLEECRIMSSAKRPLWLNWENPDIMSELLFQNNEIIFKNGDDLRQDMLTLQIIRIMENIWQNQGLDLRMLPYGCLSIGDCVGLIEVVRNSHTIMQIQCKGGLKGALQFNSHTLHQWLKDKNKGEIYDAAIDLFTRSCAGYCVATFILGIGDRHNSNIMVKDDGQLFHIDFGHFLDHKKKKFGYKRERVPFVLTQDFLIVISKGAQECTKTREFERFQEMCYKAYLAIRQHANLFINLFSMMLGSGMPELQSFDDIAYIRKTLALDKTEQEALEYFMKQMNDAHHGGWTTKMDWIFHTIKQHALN
PI3K (p110α/p85α), sequence (P27986 whole entry partner): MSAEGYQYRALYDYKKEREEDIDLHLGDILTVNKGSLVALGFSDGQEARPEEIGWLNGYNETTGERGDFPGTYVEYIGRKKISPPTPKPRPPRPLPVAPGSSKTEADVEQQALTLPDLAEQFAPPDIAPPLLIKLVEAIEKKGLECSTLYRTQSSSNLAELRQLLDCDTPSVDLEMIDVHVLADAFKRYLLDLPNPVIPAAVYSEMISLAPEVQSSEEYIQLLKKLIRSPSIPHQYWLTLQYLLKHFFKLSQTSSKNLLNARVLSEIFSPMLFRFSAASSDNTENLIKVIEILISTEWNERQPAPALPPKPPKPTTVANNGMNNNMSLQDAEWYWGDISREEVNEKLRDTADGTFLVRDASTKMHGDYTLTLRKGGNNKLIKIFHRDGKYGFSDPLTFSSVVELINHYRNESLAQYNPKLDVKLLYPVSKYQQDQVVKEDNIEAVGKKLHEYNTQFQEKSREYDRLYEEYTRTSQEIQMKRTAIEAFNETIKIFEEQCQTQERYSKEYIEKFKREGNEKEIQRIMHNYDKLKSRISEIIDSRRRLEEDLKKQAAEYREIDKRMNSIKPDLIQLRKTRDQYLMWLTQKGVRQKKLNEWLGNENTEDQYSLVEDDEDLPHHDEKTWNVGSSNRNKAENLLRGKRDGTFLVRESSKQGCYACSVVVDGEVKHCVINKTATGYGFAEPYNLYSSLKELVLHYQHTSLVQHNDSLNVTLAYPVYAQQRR

Row | SMILES | IC50 [1] | IC50 (read-out: IC50 [μM] PI3Kα) | inhibition at 10 µM (10 μM compound concentration, read-out: Inhibition (%) of PI3Kα activity, Inh (%) at 10 μM)
1 | Nc1ncc(-c2cnc3sc(-c4ccc(S(=O)(=O)N5CCOCC5)cc4)nn23)cc1C(F)(F)F [Example 44, 5-{2-[4-(Morpholine-4-sulfonyl)-phenyl]-imidazo[2,1-b][1,3,4]thiadiazol-5-yl}-3-trifluoromethyl-pyridin-2-ylamine] | 0.1 to 1 µM | – | –
2 | Nc1ncc(-c2cnc3sc(-c4cccc(S(=O)(=O)N5CCOCC5)c4)nn23)cc1C(F)(F)F [Example 45, 5-{2-[3-(Morpholine-4-sulfonyl)-phenyl]-imidazo[2,1-b][1,3,4]thiadiazol-5-yl}-3-trifluoromethyl-pyridin-2-ylamine] | 0.1 to 1 µM | 0.437 µM | –
3 | CC(=O)Nc1cccc(-c2nn3c(-c4cnc(N)c(C(F)(F)F)c4)cnc3s2)c1 [Example 46, N-{3-[5-(6-Amino-5-trifluoromethyl-pyridin-3-yl)-imidazo[2,1-b][1,3,4]thiadiazol-2-yl]-phenyl}-acetamide] | < 0.1 µM | – | –
4 | COc1cncc(-c2nn3c(-c4cnc(N)c(C(F)(F)F)c4)cnc3s2)c1 [Example 47, 5-[2-(5-Methoxy-pyridin-3-yl)-imidazo[2,1-b][1,3,4]thiadiazol-5-yl]-3-trifluoromethyl-pyridin-2-ylamine] | < 0.1 µM | 0.021 µM | –
5 | CS(=O)(=O)c1ccc(-c2cnc3sc(-c4cnc(N)c(C(F)(F)F)c4)nn23)cc1 [Example 49, 5-[5-(4-Methanesulfonyl-phenyl)-imidazo[2,1-b][1,3,4]thiadiazol-2-yl]-3-trifluoromethyl-pyridin-2-ylamine] | < 0.1 µM | – | –
6 | Nc1ncc(-c2nn3c(-c4ccc(F)nc4)cnc3s2)cc1C(F)(F)F [Example 50, 5-[5-(6-Fluoro-pyridin-3-yl)-imidazo[2,1-b][1,3,4]thiadiazol-2-yl]-3-trifluoromethyl-pyridin-2-ylamine] | 0.1 to 1 µM | – | 97%
7 | COC(=O)c1ccc(-c2cnc3sc(-c4cnc(N)c(C(F)(F)F)c4)nn23)cc1OC [Example 51, 4-[2-(6-Amino-5-trifluoromethyl-pyridin-3-yl)-imidazo[2,1-b][1,3,4]thiadiazol-5-yl]-2-methoxy-benzoic acid methyl ester] | < 0.1 µM | 0.018 µM | –
